Converted amounts (≈) assume the structure as drawn.
Key:
[1] = Induction of bulk conductivity in soybean asolectin planar lipid bilayers assessed as residual conductance of black lipid bilayer at 250 nM at pH 8
[2] = Stability of the compound in n-Octanol assessed as negative cotton effect at 50 uM by CD spectroscopic method; type: physicochemical
[3] = Stability of the compound in THF assessed as negative cotton effect at 50 uM by CD spectroscopic method; type: physicochemical
[4] = Stability of the compound in MeOH assessed as negative cotton effect at 50 uM by CD spectroscopic method; type: physicochemical
[5] = Hemolytic activity against human erythrocytes at 20 to 140 uM after 30 mins; type: ADME, cell-based; details: erythrocyte, 0.5 h
[6] = Stability of the compound in acetonitrile assessed as negative cotton effect at 50 uM by CD spectroscopic method; type: physicochemical
[7] = Stability of the compound in 1,4-dioxane assessed as negative cotton effect at 50 uM by CD spectroscopic method; type: physicochemical
Streptococcus pneumoniae = assay: Antimicrobial activity against Streptococcus pneumoniae serotype 19A after 16 to 20 hrs by broth microdilution method; type: functional
Enterococcus faecalis = assay: Antimicrobial activity against Enterococcus faecalis ATCC 29212 after 16 to 20 hrs by broth microdilution method; type: functional
Staphylococcus aureus = assay: Antimicrobial activity against methicillin-resistant Staphylococcus aureus ATCC 43300 after 16 to 20 hrs by broth microdilution method; type: functional
Enterococcus faecium = assay: Antimicrobial activity against Enterococcus faecium DSMZ 20477 after 16 to 20 hrs by broth microdilution method; type: functional
Plasmodium falciparum [8] = assay: Antimalarial activity against chloroquine-resistant Plasmodium falciparum Dd2 after 72 hrs by NBT based LDH assay; type: functional; details: Dd2, 72 h
Pseudomonas aeruginosa = assay: Antimicrobial activity against Pseudomonas aeruginosa ATCC 27853 after 16 to 20 hrs by broth microdilution method; type: functional
Plasmodium falciparum [9] = assay: Antimalarial activity against chloroquine-sensitive Plasmodium falciparum 3D7 after 72 hrs by NBT based LDH assay; type: functional; details: 3D7, 72 h
Escherichia coli = assay: Antimicrobial activity against Escherichia coli ATCC 25922 after 16 to 20 hrs by broth microdilution method; type: functional
Klebsiella pneumoniae = assay: Antimicrobial activity against Klebsiella pneumoniae ATCC 13883 after 16 to 20 hrs by broth microdilution method; type: functional
Proteus mirabilis = assay: Antimicrobial activity against Proteus mirabilis ATCC 7002 after 16 to 20 hrs by broth microdilution method; type: functional
[10] = system: Staphylococcus epidermidis; assay: Antimicrobial activity against Staphylococcus epidermidis PP62A after 16 to 20 hrs by broth microdilution method; type: functional
[11] = Induction of bulk conductivity in soybean asolectin planar lipid bilayers assessed as residual conductance of black lipid bilayer at 1 nM at pH 8
[12] = Induction of bulk conductivity in soybean asolectin planar lipid bilayers assessed as residual conductance of black lipid bilayer at 500 nM at pH 8
[13] = Induction of bulk conductivity in soybean asolectin planar lipid bilayers assessed as residual conductance of black lipid bilayer at 0.5 nM at pH 8

Row | SMILES | Activity [1] [uS] | Stability [2] | Stability [3] | Stability [4] | Activity [5] | Stability [7] | MIC (Streptococcus pneumoniae) [µg/mL] | MIC (Enterococcus faecalis) [µg/mL] | MIC (Staphylococcus aureus) [µg/mL] | MIC (Enterococcus faecium) [µg/mL] | IC50 (Plasmodium falciparum [8]) [nM] | MIC (Pseudomonas aeruginosa) [µg/mL] | IC50 (Plasmodium falciparum [9]) [nM] | MIC (Escherichia coli) [µg/mL] | MIC (Klebsiella pneumoniae) [µg/mL] | MIC (Proteus mirabilis) [µg/mL] | MIC [10] [µg/mL] | Activity [11] [uS] | Activity [12] [uS] | further results
1 | CC(C)C[C@H]1NC(=O)[C@H](C)NC(=O)CNC(=O)[C@H](C(C)C)NC(=O)CCSSCCC(=O)N[C@@H](C(C)C)C(=O)NCC(=O)N[C@@H](C)C(=O)N[C@H](CC(C)C)C(=O)N[C@@H](C)C(=O)N[C@H](C(C)C)C(=O)N[C@@H](C(C)C)C(=O)N[C@H](C(C)C)C(=O)N[C@@H](Cc2c[nH]c3ccccc23)C(=O)N[C@H](CC(C)C)C(=O)N[C@@H](Cc2c[nH]c3ccccc23)C(=O)N[C@H](CC(C)C)C(=O)N[C@@H](Cc2c[nH]c3ccccc23)C(=O)N[C@H](CC(C)C)C(=O)N[C@@H](Cc2c[nH]c3ccccc23)C(=O)NCCSSCCNC(=O)[C@H](Cc2c[nH]c3ccccc23)NC(=O)[C@@H](CC(C)C)NC(=O)[C@H](Cc2c[nH]c3ccccc23)NC(=O)[C@@H](CC(C)C)NC(=O)[C@H](Cc2c[nH]c3ccccc23)NC(=O)[C@@H](CC(C)C)NC(=O)[C@H](Cc2c[nH]c3ccccc23)NC(=O)[C@@H](C(C)C)NC(=O)[C@H](C(C)C)NC(=O)[C@@H](C(C)C)NC(=O)[C@H](C)NC1=O | < 0.3 |  |  |  |  |  |  |  |  |  |  |  |  |  |  |  |  |  |  | 
2 | CC(=O)N[C@H](C(=O)NCC(=O)N[C@@H](C)C(=O)N[C@H](CC(C)C)C(=O)N[C@@H](C)C(=O)N[C@@H](C(=O)N[C@H](C(=O)N[C@@H](C(=O)N[C@@H](Cc1c[nH]c2ccccc12)C(=O)N[C@H](CC(C)C)C(=O)N[C@@H](Cc1c[nH]c2ccccc12)C(=O)N[C@H](CC(C)C)C(=O)N[C@@H](Cc1c[nH]c2ccccc12)C(=O)N[C@H](CC(C)C)C(=O)N[C@@H](Cc1c[nH]c2ccccc12)C(=O)NCCSSCCC(=O)N[C@H](C(=O)NCC(=O)N[C@@H](C)C(=O)N[C@H](CC(C)C)C(=O)N[C@@H](C)C(=O)N[C@@H](C(=O)N[C@H](C(=O)N[C@@H](C(=O)N[C@@H](Cc1c[nH]c2ccccc12)C(=O)N[C@H](CC(C)C)C(=O)N[C@@H](Cc1c[nH]c2ccccc12)C(=O)N[C@H](CC(C)C)C(=O)N[C@@H](Cc1c[nH]c2ccccc12)C(=O)N[C@H](CC(C)C)C(=O)N[C@@H](Cc1c[nH]c2ccccc12)C(=O)NCCO)C(C)C)C(C)C)C(C)C)C(C)C)C(C)C)C(C)C)C(C)C)C(C)C |  | Stable | Stable | Stable | Non-Toxic | Stable |  |  |  |  |  |  |  |  |  |  |  |  |  | Stability [6]: Stable
3 | CC(=O)N[C@H](C(=O)NCC(=O)N[C@@H](C)C(=O)N[C@H](CC(C)C)C(=O)N[C@@H](C)C(=O)N[C@@H](C(=O)N[C@H](C(=O)N[C@@H](C(=O)N[C@@H](Cc1c[nH]c2ccccc12)C(=O)N[C@H](CC(C)C)C(=O)N[C@@H](Cc1c[nH]c2ccccc12)C(=O)N[C@H](CC(C)C)C(=O)N[C@@H](Cc1c[nH]c2ccccc12)C(=O)N[C@H](CC(C)C)C(=O)N[C@@H](Cc1c[nH]c2ccccc12)C(=O)NCCSSCCNC(=O)[C@H](Cc1c[nH]c2ccccc12)NC(=O)[C@@H](CC(C)C)NC(=O)[C@H](Cc1c[nH]c2ccccc12)NC(=O)[C@@H](CC(C)C)NC(=O)[C@H](Cc1c[nH]c2ccccc12)NC(=O)[C@@H](CC(C)C)NC(=O)[C@H](Cc1c[nH]c2ccccc12)NC(=O)[C@H](NC(=O)[C@@H](NC(=O)[C@H](NC(=O)[C@H](C)NC(=O)[C@@H](CC(C)C)NC(=O)[C@H](C)NC(=O)CNC(=O)[C@@H](NC(C)=O)C(C)C)C(C)C)C(C)C)C(C)C)C(C)C)C(C)C)C(C)C)C(C)C |  | Stable | Stable | Stable | Non-Toxic | Stable | 0.1 (≈ 0.0262 µM) | > 64 | > 64 | > 64 | 0.2 | > 64 | 10 | > 64 | > 64 | > 64 | > 64 |  |  | 
4 | CC(C)C[C@@H](NC(=O)[C@H](C)NC(=O)CNC(=O)[C@@H](NC(=O)CCS)C(C)C)C(=O)N[C@@H](C)C(=O)N[C@@H](C(=O)N[C@H](C(=O)N[C@@H](C(=O)N[C@@H](Cc1c[nH]c2ccccc12)C(=O)N[C@H](CC(C)C)C(=O)N[C@@H](Cc1c[nH]c2ccccc12)C(=O)N[C@H](CC(C)C)C(=O)N[C@@H](Cc1c[nH]c2ccccc12)C(=O)N[C@H](CC(C)C)C(=O)N[C@@H](Cc1c[nH]c2ccccc12)C(=O)NCCS)C(C)C)C(C)C)C(C)C |  |  |  |  |  |  | > 64 | > 64 | > 64 | > 64 |  | > 64 |  | > 64 | > 64 | > 64 | > 64 | < 0.3 | 0.3 | 
5 | CC(C)C[C@@H](NC(=O)[C@H](C)NC(=O)CNC(=O)[C@@H](NC(=O)CCSSc1ccc([N+](=O)[O-])c(C(=O)O)c1)C(C)C)C(=O)N[C@@H](C)C(=O)N[C@@H](C(=O)N[C@H](C(=O)N[C@@H](C(=O)N[C@@H](Cc1c[nH]c2ccccc12)C(=O)N[C@H](CC(C)C)C(=O)N[C@@H](Cc1c[nH]c2ccccc12)C(=O)N[C@H](CC(C)C)C(=O)N[C@@H](Cc1c[nH]c2ccccc12)C(=O)N[C@H](CC(C)C)C(=O)N[C@@H](Cc1c[nH]c2ccccc12)C(=O)NCCO)C(C)C)C(C)C)C(C)C |  |  |  |  |  |  | > 64 | 1 (≈ 0.467 µM) | > 64 | 0.5 (≈ 0.234 µM) |  | > 64 |  | > 64 | > 64 | > 64 | 1 (≈ 0.467 µM) | 0.2 | 115 | 
6 | CC(C)C[C@@H](NC(=O)[C@H](C)NC(=O)CNC(=O)[C@@H](NC(=O)CCSSCCC(=O)N[C@H](C(=O)NCC(=O)N[C@@H](C)C(=O)N[C@H](CC(C)C)C(=O)N[C@@H](C)C(=O)N[C@@H](C(=O)N[C@H](C(=O)N[C@@H](C(=O)N[C@@H](Cc1c[nH]c2ccccc12)C(=O)N[C@H](CC(C)C)C(=O)N[C@@H](Cc1c[nH]c2ccccc12)C(=O)N[C@H](CC(C)C)C(=O)N[C@@H](Cc1c[nH]c2ccccc12)C(=O)N[C@H](CC(C)C)C(=O)N[C@@H](Cc1c[nH]c2ccccc12)C(=O)NCCO)C(C)C)C(C)C)C(C)C)C(C)C)C(C)C)C(=O)N[C@@H](C)C(=O)N[C@@H](C(=O)N[C@H](C(=O)N[C@@H](C(=O)N[C@@H](Cc1c[nH]c2ccccc12)C(=O)N[C@H](CC(C)C)C(=O)N[C@@H](Cc1c[nH]c2ccccc12)C(=O)N[C@H](CC(C)C)C(=O)N[C@@H](Cc1c[nH]c2ccccc12)C(=O)N[C@H](CC(C)C)C(=O)N[C@@H](Cc1c[nH]c2ccccc12)C(=O)NCCO)C(C)C)C(C)C)C(C)C | 66 |  |  |  | Non-Toxic |  |  |  |  |  | 26.5 |  | 31 | > 64 |  |  |  |  |  | Activity [13]: 0.4 uS

Source: ChEMBL document CHEMBL3870335, “Bioactivity of topologically confined gramicidin A dimers” (Bioorg Med Chem, 2017)
